Results from US20250136618A1, “ANTIBIOTIC PYRAZINOTHIAZINE DERIVATIVES AND PROCESS OF PREPARATION THEREOF” (Bugworks Research India PVT Ltd, priority 2021, published 2025).
≈ marks a conversion by molar mass, not a printed value.

Tests used:
Assay type in all cases: cell-based
[1] = system: Acinetobacter baumannii ATCC 19606; assay: Minimum Inhibitory Concentration (MIC) in LB media; conditions: Acinetobacter baumannii, ATCC19606
Excerpt: (§1) The compounds of Formula Ia and Formula Ib are of interest due to their potent antibacterial effects. The ability of the compounds disclosed herein to achieve an antibacterial effect may be evaluated with regard to their ability to inhibit the growth of bacterial species like Escherichia coli ATCC 25922, Staphylococcus aureus ATCC 29213, Klebsiella pneumoniae ATCC 13883, Acinetobacter baumannii ATCC 19606, Pseudomonas aeruginosa ATCC 27853 and Enterococcus faecalis ATCC 29212 using an assay based on the following Minimum Inhibitory Concentration (MIC) protocol:
(§2) The test bacteria were grown in Luria Bertani Broth (HIMEDIA M1245), 25 g of the powder was dissolved in 1000 ml distilled water and sterilized by autoclaving at 15 lbs pressure (121° C.) for 20 minutes. The medium sterility was checked by incubating at 37° C. for a period of 48 h. Bacterial cultures that were stored as glycerol stocks at −80° C. were subcultured on LB agar plates to obtain isolated colonies. A single colony of each strain was cultured in LB broth. The cultures were incubated at 37° C., 200 rpm till they reached an optical density (OD at 600 nm) of 0.8 to 1. This log phase culture was diluted in LB broth to a cell number of 5-8*10^5 CFU/mL to be used as inoculum for MIC experiments. Test compounds were dissolved in dimethyl sulfoxide (DMSO) to a stock concentration of 4 mg/ml. A two-fold dilution series of this DMSO stock was prepared in a 96 well V bottom microtitre plate from rows A to H. A 3 μL volume of these dilutions are transferred to a 96-well flat bottom microtitre assay plate. Controls to monitor the effects of DMSO and media sterility were included. Each well was inoculated with 150 μL of the above diluted culture. The plates were incubated at 37° C. overnight in a humidified incubator. The following morning, the plates were read using a Spectrophotometer at 600 nm wavelength. […] The antibacterial activity (MIC) determined against representative gram-positive (S. aureus, E. faecalis) and gram-negative (E. coli, Aeruginosa, K. pneumoniae, and A. baumannii) pathogen are reported Table 1.

[2] = system: Enterococcus faecalis ATCC 29212; assay: Minimum Inhibitory Concentration (MIC) in LB media; conditions: Enterococcus faecalis, ATCC29212, read-out: Minimum Inhibitory Concentration E. faecalis ATCC 29212
Excerpt: as §1, §2

[3] = system: Escherichia coli ATCC 25922; assay: Minimum Inhibitory Concentration (MIC) in LB media; conditions: Escherichia coli, ATCC25922, read-out: Minimum Inhibitory Concentration E. coli ATCC 25922
Excerpt: as §1, §2

[4] = system: Klebsiella pneumoniae ATCC 13883; assay: Minimum Inhibitory Concentration (MIC) in LB media; conditions: Klebsiella pneumoniae, ATCC13883, read-out: Minimum Inhibitory Concentration K. pneumoniae ATCC 13883
Excerpt: as §1, §2

[5] = system: Pseudomonas aeruginosa ATCC 27853; assay: Minimum Inhibitory Concentration (MIC) in LB media; conditions: Pseudomonas aeruginosa, ATCC27853
Excerpt: as §1, §2

[6] = system: Staphylococcus aureus ATCC 29213; assay: Minimum Inhibitory Concentration (MIC) in LB media; conditions: Staphylococcus aureus, ATCC29213, read-out: Minimum Inhibitory Concentration S. aureus ATCC 29213
Excerpt: as §1, §2

Acinetobacter baumannii = assay: MIC90 determination, clinical strains (CLSI); conditions: Acinetobacter baumannii, N=38, read-out: MIC 90 Acinetobacter baumannii
Citrobacter freundii = assay: MIC90 determination, clinical strains (CLSI); conditions: Citrobacter freundii, N=19, read-out: MIC 90 Citrobacter freundii
Enterobacter cloacae = assay: MIC90 determination, clinical strains (CLSI); conditions: Enterobacter cloacae, N=26, read-out: MIC 90 Enterobacter cloacae
Escherichia coli = assay: MIC90 determination, clinical strains (CLSI); conditions: Escherichia coli, N=38, read-out: MIC 90 Escherichia coli
[7] = system: Klebsiella aerogenes, K. oxytoca; assay: MIC90 determination, clinical strains (CLSI); conditions: N=17, read-out: MIC 90 Klebsiella aerogenes, K. oxytoca
Klebsiella pneumoniae = assay: MIC90 determination, clinical strains (CLSI); conditions: Klebsiella pneumoniae, N=86, read-out: MIC 90 Klebsiella pneumoniae
Morganella morganii = assay: MIC90 determination, clinical strains (CLSI); conditions: Morganella morganii, N=11, read-out: MIC 90 Morganella morganii
Proteus mirabilis = assay: MIC90 determination, clinical strains (CLSI); conditions: Proteus mirabilis, N=12, read-out: MIC 90 Proteus mirabilis
[8] = system: Providencia rettgeri, P. stuartii; assay: MIC90 determination, clinical strains (CLSI); conditions: N=12, read-out: MIC 90 Providencia rettgeri, P. stuartii
Pseudomonas aeruginosa = assay: MIC90 determination, clinical strains (CLSI); conditions: Pseudomonas aeruginosa, N=34, read-out: MIC 90 Pseudomonas aeruginosa
Serratia marcescens = assay: MIC90 determination, clinical strains (CLSI); conditions: Serratia marcescens, N=15, read-out: MIC 90 Serratia marcescens
CHO-K1 cells = assay: In-vitro micronucleus assay; conditions: Chinese hamster
Procedure: Genetic toxicology studies were performed on the compounds of the present disclosure to assess their ability to cause DNA damage. The in-vitro micronucleus assay measured the concentration (μM) of the compound at which micronuclei formation occurred. A micronuclei formation at lower concentration indicates more genetic damage or genotoxicity.
Micronucleus formation is a hallmark of genotoxicity, and the micronucleus assay is an important component of genotoxicity screening. Micronuclei are chromatin-containing bodies that represent fragments or even whole chromosomes that were not incorporated into a daughter cell nucleus at mitosis. The purpose of the assay is to detect agents that induce chromosome damage leading to the induction of micronuclei in interphase cells. The in vitro micronucleus assay was conducted in CHO-K1 cells according to the procedure described by Diaz, D et al [Mutat Res. 630(1-2):1-13. […] The formation of the micronucleus is identified by image-based high content analysis from binucleated cells.

hERG potassium channel = hERG potassium channel (Homo sapiens (Human), UniProt Q12809); assay: hERG inhibition assay (Qpatch HTX automated electrophysiology); conditions: CHO cell line expressing hERG, whole-cell patch clamp
Procedure: Electrophysiological recordings were made from a Chinese Hamster Ovary cell line stably expressing the full-length hERG potassium channel. Single cell ionic currents were measured in whole-cell patch clamp configuration at room temperature (21-23° C.) using the Qpatch HTX platform (Sophion). Intracellular solution contained (mM): 120 KF, 20 KCl, 10 EGTA, 10 HEPES and was buffered to pH 7.3. […] Cells were clamped at a holding potential of −80 mV. Cells were stepped to +20 mV for 2 s then −40 mV for 3 s before returning to the holding potential. […] Compounds were then incubated for 2 minutes prior to a second measurement of ion channel current using an identical pulse train.

Sequence of hERG potassium channel (Q12809 whole entry): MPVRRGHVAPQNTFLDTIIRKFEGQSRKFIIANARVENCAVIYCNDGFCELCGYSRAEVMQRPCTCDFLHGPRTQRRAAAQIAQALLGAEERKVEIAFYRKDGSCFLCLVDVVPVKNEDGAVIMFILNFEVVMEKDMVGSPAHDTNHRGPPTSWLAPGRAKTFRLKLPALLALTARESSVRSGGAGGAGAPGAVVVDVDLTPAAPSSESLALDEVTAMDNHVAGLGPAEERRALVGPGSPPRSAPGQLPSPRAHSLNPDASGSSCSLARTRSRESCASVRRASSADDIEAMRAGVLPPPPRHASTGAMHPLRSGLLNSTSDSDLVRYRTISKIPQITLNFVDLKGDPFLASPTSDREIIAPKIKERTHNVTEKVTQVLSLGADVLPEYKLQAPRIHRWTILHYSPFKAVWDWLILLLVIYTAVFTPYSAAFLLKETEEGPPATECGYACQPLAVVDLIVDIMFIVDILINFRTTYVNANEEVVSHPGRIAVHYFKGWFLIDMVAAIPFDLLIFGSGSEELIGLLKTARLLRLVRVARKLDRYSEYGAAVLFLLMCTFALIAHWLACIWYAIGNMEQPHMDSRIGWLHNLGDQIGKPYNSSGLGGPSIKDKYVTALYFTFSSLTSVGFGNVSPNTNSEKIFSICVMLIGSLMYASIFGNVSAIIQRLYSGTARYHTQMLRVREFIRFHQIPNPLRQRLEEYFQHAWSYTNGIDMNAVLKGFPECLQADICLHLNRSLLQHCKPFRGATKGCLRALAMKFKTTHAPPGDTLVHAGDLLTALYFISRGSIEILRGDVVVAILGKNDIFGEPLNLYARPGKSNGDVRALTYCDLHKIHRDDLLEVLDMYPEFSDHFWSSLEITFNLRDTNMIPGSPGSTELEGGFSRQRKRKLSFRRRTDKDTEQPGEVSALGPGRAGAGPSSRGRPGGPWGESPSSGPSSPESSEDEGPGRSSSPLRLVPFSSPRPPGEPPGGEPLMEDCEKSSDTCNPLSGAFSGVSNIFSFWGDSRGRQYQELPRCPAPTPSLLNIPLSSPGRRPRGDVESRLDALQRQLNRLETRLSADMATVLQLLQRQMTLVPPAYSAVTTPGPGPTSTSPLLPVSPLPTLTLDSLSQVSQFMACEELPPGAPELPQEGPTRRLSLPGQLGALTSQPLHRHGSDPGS

MIC [1] [µg/mL]	MIC [2] [µg/mL]	MIC [3] [µg/mL]	MIC [4] [µg/mL]	MIC [5] [µg/mL]	MIC [6] [µg/mL]	MIC90 (Acinetobacter baumannii) [µg/mL]	MIC90 (Citrobacter freundii) [µg/mL]	MIC90 (Enterobacter cloacae) [µg/mL]	MIC90 (Escherichia coli) [µg/mL]	MIC90 [7] [µg/mL]	MIC90 (Klebsiella pneumoniae) [µg/mL]	MIC90 (Morganella morganii) [µg/mL]	MIC90 (Proteus mirabilis) [µg/mL]	MIC90 [8] [µg/mL]	MIC90 (Pseudomonas aeruginosa) [µg/mL]	MIC90 (Serratia marcescens) [µg/mL]	Structure (SMILES)	% (in-vitro micronucleus assay) (CHO-K1 cells) [%]	In vitro micronucleus forming concentration (CHO-K1 cells) [µM]	IC50 (hERG potassium channel) [µM]
0.03 (≈ 0.0619 µM)	0.1 (≈ 0.206 µM)	0.03 (≈ 0.0619 µM)	0.03 (≈ 0.0619 µM)	0.5 (≈ 1.03 µM)	< 0.03	0.5 (≈ 1.03 µM)	2 (≈ 4.13 µM)	4 (≈ 8.26 µM)	0.5 (≈ 1.03 µM)	2 (≈ 4.13 µM)	4 (≈ 8.26 µM)	1 (≈ 2.06 µM)	4 (≈ 8.26 µM)	2 (≈ 4.13 µM)	2 (≈ 4.13 µM)	8 (≈ 16.5 µM)	Cn1c(=O)cnc2ccc(OCCNC[C@H]3CN(c4cnc5c(n4)NC(=O)CS5)C(=O)O3)nc21 [Compound 1, (S)-5-(((2-((4-Methyl-3-oxo-3,4-dihydropyrido[2,3-b]pyrazin-6-yl)oxy)ethyl)amino)methyl)-3-(3-oxo-3,4-dihydro-2H-pyrazino[2,3-b][1,4]thiazin-6-yl)oxazolidin-2-one, reference compound]	1.58	32	58
0.03 (≈ 0.0619 µM)	0.03 (≈ 0.0619 µM)	0.03 (≈ 0.0619 µM)	0.03 (≈ 0.0619 µM)	0.5 (≈ 1.03 µM)	< 0.03	2 (≈ 4.13 µM)	1 (≈ 2.06 µM)	8 (≈ 16.5 µM)	1 (≈ 2.06 µM)	2 (≈ 4.13 µM)	4 (≈ 8.26 µM)	1 (≈ 2.06 µM)	4 (≈ 8.26 µM)	4 (≈ 8.26 µM)	4 (≈ 8.26 µM)	16 (≈ 33 µM)	Cn1c(=O)ccc2ncc(OCCNC[C@H]3CN(c4cnc5c(n4)NC(=O)CS5)C(=O)O3)nc21 [Compound 2, (S)-5-(((2-((5-Methyl-6-oxo-5,6-dihydropyrido[2,3-b]pyrazin-3-yl)oxy)ethyl)amino)methyl)-3-(3-oxo-3,4-dihydro-2H-pyrazino[2,3-b][1,4]thiazin-6-yl)oxazolidin-2-one, reference compound]	1.67	8	> 150
